Paper PMC8391988 (2021)

Key:
[1] = test system: poly rA–poly rU (RNA, polymer) A/U; test: UV thermal melting at 260 nm; conditions: Na+ (sodium cacodylate, I = 0.05 M), pH 7.0, polynucleotide 1–2 × 10^-5 M, per base
[2] = test system: poly rG–poly rC (RNA, polymer) G/C; test: fluorimetric titration, Scatchard; conditions: Na+ (sodium cacodylate, I = 0.05 M); pH 7.0; apparent; per phosphate; n fixed at 0.2; dye 1.3–1.5 × 10^-7 M; per base
[3] = test system: poly dGdC–poly dGdC (DNA, polymer) GC; test: fluorimetric titration, Scatchard; conditions: Na+ (sodium cacodylate, I = 0.05 M); pH 7.0; apparent; per phosphate; n fixed at 0.2; dye 1.3–1.5 × 10^-7 M; per base
[4] = test system: poly dG–poly dC (DNA, polymer) G/C; test: fluorimetric titration, Scatchard; conditions: Na+ (sodium cacodylate, I = 0.05 M); pH 7.0; apparent; per phosphate; n fixed at 0.2; dye 1.3–1.5 × 10^-7 M; per base
[5] = test system: poly dAdT–poly dAdT (DNA, polymer) AT; test: fluorimetric titration, Scatchard; conditions: Na+ (sodium cacodylate, I = 0.05 M); pH 7.0; apparent; per phosphate; n fixed at 0.2; dye 1.3–1.5 × 10^-7 M; per base
[6] = test system: poly dA–poly dT (DNA, polymer) A/T; test: fluorimetric titration, Scatchard; conditions: Na+ (sodium cacodylate, I = 0.05 M); pH 7.0; apparent; per phosphate; n fixed at 0.2; dye 1.3–1.5 × 10^-7 M; per base
[7] = test system: poly rA–poly rU (RNA, polymer) A/U; test: fluorimetric titration, Scatchard; conditions: Na+ (sodium cacodylate, I = 0.05 M); pH 7.0; apparent; per phosphate; n fixed at 0.2; dye 1.3–1.5 × 10^-7 M; per base
[8] = test system: poly dAdT–poly dAdT (DNA, polymer) AT; test: UV thermal melting at 260 nm; conditions: Na+ (sodium cacodylate, I = 0.05 M); pH 7.0; r = [compound]/[phosphate] = 0.2; polynucleotide 1–2 × 10^-5 M; per base
[9] = r = [compound]/[phosphate] = 0.2

Row | SMILES | ΔTm ([1]; r = 0.1, destabilised (−19.1) at r = 0.2) | log Ks [2] | log Ks [3] | log Ks [4] | log Ks [5] | log Ks [6] | log Ks [7] | ΔTm [8] | ΔTm [1, 9]
1 | CC(O)C[n+]1c(C=C2C=CN(CCC[n+]3ccc(CCCc4cc[n+](CCCN5C=CC(=Cc6sc7ccccc7[n+]6CC(C)O)c6ccccc65)cc4)cc3)c3ccccc32)sc2ccccc21 (stereo not drawn) | 10.6 °C | 4.76 | 7.04 | 6.78 | 6.68 | 6.23 | 6.22 | – | –
2 | CC(O)C[n+]1c(C=C2C=CN(CCC[N+]3(C)CCC(CCCC4CC[N+](C)(CCCN5C=CC(=Cc6sc7ccccc7[n+]6CC(C)O)c6ccccc65)CC4)CC3)c3ccccc32)sc2ccccc21 (stereo not drawn) | – | 4.79 | 7.20 | 6.63 | 6.98 | 5.89 | 6.14 | 10.7 °C | 0 °C
3 | CC(O)C[n+]1c(C=C2C=CN(CCC[N+]3(C)CCC(CCCC4CC[N+](C)(CCCN5C=CC(=Cc6sc7ccccc7[n+]6CC(C)O)c6ccc(Cl)cc65)CC4)CC3)c3cc(Cl)ccc32)sc2ccccc21 (stereo not drawn) | – | 4.95 | 7.40 | 7.41 | 6.05 | 5.91 | 6.14 | 7.1 °C | 0.6 °C

More lines, now with the values ahead:

Row | ΔTm ([1]; r = 0.1, destabilised (−19.1) at r = 0.2) | log Ks [2] | log Ks [3] | log Ks [4] | log Ks [5] | log Ks [6] | log Ks [7] | ΔTm [8] | ΔTm [1, 9] | SMILES
4 | – | 4.94 | 7.64 | 7.55 | 7.23 | 6.19 | 7.15 | 8.9 °C | 3.0 °C | CC(O)C[n+]1c(C=C2C=CN(CCC[N+](C)(C)CCC[N+](C)(C)CCCN3C=CC(=Cc4sc5ccccc5[n+]4CC(C)O)c4ccccc43)c3ccccc32)sc2ccccc21 (stereo not drawn)
5 | – | 5.23 | 6.98 | 6.79 | 6.65 | 6.41 | 6.11 | 28.6 °C | 24.0 °C | CC(O)C[n+]1c(C=C2C=CN(CCC[N+](C)(C)CCC[N+](C)(C)C)c3ccccc32)sc2ccccc21 (stereo not drawn)
